For assay [1], the system named is BxPC-3 cells. Nature of the assay: MitoTracker Red, mitochondria membrane potential. Type of assay: cell-based, human. How it is done:
(§1) The fitness of the mitochondria and changes in MMP were assessed using MitoTracker Red. Data for experimental groups were presented as mean percentage of control group fluorescence intensity ± SD value (Figure 11, Table 2). Mitotracker Red is deposited in the mitochondrial matrix in response to changes in the inner transmembrane potential of the mitochondria. The intensity of fluorescence reflects the fitness of the mitochondria and alters with changes in MMP [91]. BxPC-3 and PC-3 cells were seeded at appropriate density on a 96-well plates (Table 9). […] After appropriate incubation time, cells were incubated with MitoTracker Red (0.1 µM/200 µL PBS/well) for 40 min. Afterward, MitoTracker Red solution was removed from the wells and PBS (200 µL/well) was added. Fluorescence was read at an […] of 581/644 nm using the SpectraMax® i3x Multi-Mode Detection Platform.

The test system of assay [2] is PC-3 cells. Description: MitoTracker Red, mitochondria membrane potential. The class given is cell-based, human. How it is done:
as §1

Assay [3] relates to HCT-116 cells. Nature of the assay: MTT assay, cell viability. Type of assay: cell-based. The conditions noted are these: Homo sapiens, HCT-116, 72 h incubation, ± SD. On the procedure: (§2) A statistical program (Graphpad Prism 7) was used to analyze obtained data (MTT test). The dose–response analysis was performed to estimate the inhibitory concentration (IC50) of the tested compounds. The IC50 value is defined as a concentration of the tested compound that leads to a reduction in cell pool viability by 50% compared to the negative control (accepted as 100%). % cell viability=Absorbance value of treated cells−Absorbance value of blank/Absorbance value of untreated cells−Absorbance value of blank×100%
To estimate cell viability following 72 h incubation with the tested MM-compounds (MM134, MM136, MM137, and MM139), the MTT test was used according to the PN-EN ISO 10993-5. It is a quantitative method based on the tetrazolium yellow dye MTT [3(4,5-dimethyl-2-thiazolyl)-2,5-diphenyl-2H-tetrazolium bromide], which is converted by living cells to a purple product, formazan, the concentration of which was measured colorimetrically. The MTT assay was performed according to the procedure described by Mosmann with modifications. At a density of approximately 8 × 10^3 cells per 100 µL/well, 96-well plates were seeded. Following the given incubation period in controlled conditions (37 °C; 5% CO2), cells were exposed to different concentrations of tested compounds in DMSO (range 0.05–3 µM) in a volume of 100 µL medium per well. Final solvent concentration of DMSO was < 0.5% v/v. The experimental design included vehicle controls and blanks (wells without cells).
After 72 h of incubation of cells with tested MM-compounds, 20 µL of MTT tetrazolium salt (5 mg/mL in PBS) was added to each well, and plates were incubated once again in a humidified atmosphere for 3 h (37 °C; 5% CO2). Following the incubation time, the solutions were removed and 100 µL of DMSO was added to dissolve the formazan complexes. Subsequently, a spectrophotometer (microplate reader Power Wave XS BioTek Instruments, Inc., Winooski, VT, USA) reading was performed at 570 nm. The experiments were performed in duplicates.
For orientation: Tetrazolium assays rely on reduction of a dye to a coloured formazan, in cell work by metabolically active cells.

Assay [4] concerns cancer cell lines (BxPC-3, HCT-116, PC-3). Description: MTT assay, cancer cell lines together. Type of assay: cell-based. Particulars: Homo sapiens; range over BxPC-3, HCT-116, PC-3; 72 h MTT; read-out: IC50 values in cancer cells. On the procedure:
as §2
To estimate cell viability following 72 h incubation with the tested MM-compounds (MM134, MM136, MM137, and MM139), the MTT test was used according to the PN-EN ISO 10993-5. It is a quantitative method based on the tetrazolium yellow dye MTT [3(4,5-dimethyl-2-thiazolyl)-2,5-diphenyl-2H-tetrazolium bromide], which is converted by living cells to a purple product, formazan, the concentration of which was measured colorimetrically. […]
After 72 h of incubation of cells with tested MM-compounds, 20 µL of MTT tetrazolium salt (5 mg/mL in PBS) was added to each well, and plates were incubated once again in a humidified atmosphere for 3 h (37 °C; 5% CO2). […] Subsequently, a spectrophotometer (microplate reader Power Wave XS BioTek Instruments, Inc., Winooski, VT, USA) reading was performed at 570 nm. […]

Setting [5] is: BxPC-3, 24 h incubation, 0.5IC50, ± SD.
The mark [6] stands for this setting: BxPC-3, 24 h incubation, 2xIC50, ± SD.
Setting [7] is: BxPC-3, 24 h incubation, IC50, ± SD.
Setting [8] is: BxPC-3, 48 h incubation, 0.5IC50, ± SD.
Setting [9] is: BxPC-3, 48 h incubation, 2xIC50, ± SD.
Setting [10] is: BxPC-3, 48 h incubation, IC50, ± SD.
Setting [11] is: PC-3, 24 h incubation, 0.5IC50, ± SD.
[12] abbreviates: PC-3, 24 h incubation, 2xIC50, ± SD.
The mark [13] stands for this setting: PC-3, 24 h incubation, IC50, ± SD.
Setting [14] is: PC-3, 48 h incubation, 0.5IC50, ± SD.
[15] abbreviates: PC-3, 48 h incubation, 2xIC50, ± SD.
The mark [16] stands for this setting: PC-3, 48 h incubation, IC50, ± SD.

We go through three molecules from PMC9180621, “Preparation of Novel Pyrazolo[4,3-e]tetrazolo[1,5-b][1,2,4]triazine Sulfonamides and Their Experimental and Computational Biological Studies” (International Journal of Molecular Sciences, 2022).

The structures appear in SMILES notation. Where “and” joins values, the source holds several entries; their conditions need not be identical. Identical values can stand only once.

In the case of `Cc1nn(-c2ccc(S(=O)(=O)NCCN3CCOCC3)cc2)c2nn3nnnc3nc12` [MM134], the “mean percentage of control group fluorescence intensity (MMP)” value (“mean percentage” below) in assay [1] (setting [5]) is on record as 88.19 ± 13.62%; in assay [1] (setting [6]) it was 78.31 ± 14.34%; in assay [1] (setting [7]) it was 81.23 ± 11.94%; in assay [1] (setting [8]), 79.98 ± 11.47%; in assay [1] (setting [9]) it was 68.95 ± 7.78%; in assay [1] (setting [10]) it was 66.04 ± 16.7%. For the same molecule, the “mean percentage” value is on record as 100.35 ± 1.57% in assay [2] (setting [11]); 82.34 ± 2.13% in assay [2] (setting [12]); 82.5 ± 2.21% in assay [2] (setting [13]); 82.1 ± 14.45% in assay [2] (setting [14]); 64.56 ± 3.33% in assay [2] (setting [15]); 80.26 ± 13.44% in assay [2] (setting [16]).

In general, IC50 refers to the concentration that gives 50% inhibition. Consider `Cc1nn(-c2ccc(S(=O)(=O)N3CCN(C)CC3)cc2)c2nn3nnnc3nc12` [MM137], for which the figures for the half-inhibitory concentration (IC50) in assay [3] and in assay [4] were 140 ± 20 nM and 110 to 160 nM, respectively. The “mean percentage” value in assay [1] (setting [5]) was determined as 89.34 ± 5.91%; in assay [1] (setting [6]), 79.22 ± 2.22%; in assay [1] (setting [7]), 79.5 ± 3.34%; in assay [1] (setting [8]), 84.62 ± 9.01%; in assay [1] (setting [9]), 73.8 ± 2.58%; in assay [1] (setting [10]), 79.8 ± 6.76%. Moreover, the “mean percentage” value in assay [2] (setting [11]) worked out at 96.26 ± 2.83%; in assay [2] (setting [12]), 82.5 ± 7.99%; in assay [2] (setting [13]) it was 87.9 ± 2.71%; in assay [2] (setting [14]), 78.26 ± 2.62%; in assay [2] (setting [15]), 64.19 ± 8.72%; in assay [2] (setting [16]) it was 75.49 ± 5.55%.

In assay [3], `Cc1nn(-c2ccc(S(=O)(=O)N3CCCCC3)cc2)c2nn3nnnc3nc12` [MM139] had an IC50 of 350 ± 50 nM. The “mean percentage” value in assay [1] (setting [5]) amounted to 81.28 ± 14.44%; in assay [1] (setting [6]) it was 64.23 ± 6.08%; in assay [1] (setting [7]) it was 66.73 ± 3.72%; in assay [1] (setting [8]), 76.9 ± 6.40%; in assay [1] (setting [9]) it was 65.95 ± 12.53%; in assay [1] (setting [10]) it was 60.35 ± 0.91%. In addition, the “mean percentage” value in assay [2] (setting [11]) was 89.2 ± 6.28%; in assay [2] (setting [12]), 78.14 ± 6.56% and 78.14 ± 6.55%; in assay [2] (setting [13]) it was 87.28 ± 15.8%; in assay [2] (setting [14]), 78.91 ± 15.21%; in assay [2] (setting [15]), 61.28 ± 9.16%; in assay [2] (setting [16]), 65.93 ± 19.56%.
